Biological target: T1, PPAR Delta (Homo sapiens, UniProt Q03181)
T1 sequence (Q03181 1-441): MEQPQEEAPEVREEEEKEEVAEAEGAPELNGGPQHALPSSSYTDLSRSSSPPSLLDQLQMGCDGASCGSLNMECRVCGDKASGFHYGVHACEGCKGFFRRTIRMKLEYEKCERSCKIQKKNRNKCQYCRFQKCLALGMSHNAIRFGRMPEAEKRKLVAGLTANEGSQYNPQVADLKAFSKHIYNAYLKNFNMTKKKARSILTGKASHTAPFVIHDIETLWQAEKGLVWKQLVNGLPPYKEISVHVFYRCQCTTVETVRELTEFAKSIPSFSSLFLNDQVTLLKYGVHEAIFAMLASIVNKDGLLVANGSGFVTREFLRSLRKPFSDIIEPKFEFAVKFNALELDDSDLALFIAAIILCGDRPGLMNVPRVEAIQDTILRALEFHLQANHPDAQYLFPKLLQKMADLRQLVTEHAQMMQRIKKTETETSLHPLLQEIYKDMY
Assay: PathHunter NHR protein interaction / nuclear translocation agonist test, PPAR Delta
Assay type: cell-based
Conditions: agonist mode; read-out: PPAR Delta EC50

| SMILES | EC50 [nM] |
| --- | --- |
| CSc1ccc(C(=O)[C@@H]2CN(C(=O)Oc3ccc(Cl)cc3F)C[C@H]2c2cc(C)c(OC(C)(C)C(=O)O)c(C)c2)cc1 (single isomer, unassigned) [Compound 42] | < 100 |
| CSc1ccc(C(=O)C2CN(C(=O)Oc3ccc(F)cc3)CC2c2cc(C)c(OC(C)(C)C(=O)O)c(C)c2)cc1 (single isomer, unassigned) [Compound 35] | 150 to 200 |
| CSc1ccc(C(=O)[C@H]2CN(C(=O)OCCC(C)C)C[C@@H]2CCc2cc(C)c(OC(C)(C)C(=O)O)c(C)c2)cc1 (racemic) [Compound 72] | 100 to 150 |
| CSc1ccc(C(=O)C2CN(C(=O)OC(C)C)CC2c2cc(C)c(OC(C)(C)C(=O)O)c(C)c2)cc1 (single isomer, unassigned) [Compound 7] | > 250 |
| CSc1ccc(C(=O)C2CN(S(C)(=O)=O)CC2c2cc(C)c(OC(C)(C)C(=O)O)c(C)c2)cc1 (single isomer, unassigned) [Compound 18] | > 250 |
| CSc1ccc(C(=O)[C@@H]2CN(C(C)=O)C[C@H]2CCc2cc(C)c(OC(C)(C)C(=O)O)c(C)c2)cc1 (racemic) [Compound 71] | 150 to 200 |
| CSc1ccc(C(=O)C2CN(C(=O)Oc3ccccc3)CC2Cc2ccc(OC(C)(C)C(=O)O)cc2F)cc1 (single isomer, unassigned) [Compound 83] | 200 to 250 |

Same assay, conditions: read-out: PPAR Delta Maximum Activation Response %

| SMILES | Emax [%] |
| --- | --- |
| CSc1ccc(C(=O)C2CN(C(=O)Oc3ccc(F)cc3)CC2c2cc(C)c(OC(C)(C)C(=O)O)c(C)c2)cc1 (single isomer, unassigned) [Compound 35] | 50 to 80 |
| CSc1ccc(C(=O)C2CN(C(=O)OC(C)C)CC2c2cc(C)c(OC(C)(C)C(=O)O)c(C)c2)cc1 (single isomer, unassigned) [Compound 7] | 50 to 80 |
| CSc1ccc(C(=O)[C@@H]2CN(C(C)=O)C[C@H]2CCc2cc(C)c(OC(C)(C)C(=O)O)c(C)c2)cc1 (racemic) [Compound 71] | 80 to 100 |

Same assay, conditions: relative to known PPARδ agonist L-165,041 = 100%; read-out: PPAR Delta Maximum Activation Response %

| SMILES | Emax [%] |
| --- | --- |
| CSc1ccc(C(=O)[C@@H]2CN(C(=O)Oc3ccc(Cl)cc3F)C[C@H]2c2cc(C)c(OC(C)(C)C(=O)O)c(C)c2)cc1 (single isomer, unassigned) [Compound 42] | 80 to 100 |
| CSc1ccc(C(=O)[C@H]2CN(C(=O)OCCC(C)C)C[C@@H]2CCc2cc(C)c(OC(C)(C)C(=O)O)c(C)c2)cc1 (racemic) [Compound 72] | 80 to 100 |
| CSc1ccc(C(=O)C2CN(S(C)(=O)=O)CC2c2cc(C)c(OC(C)(C)C(=O)O)c(C)c2)cc1 (single isomer, unassigned) [Compound 18] | 50 to 80 |
| CSc1ccc(C(=O)C2CN(C(=O)Oc3ccccc3)CC2Cc2ccc(OC(C)(C)C(=O)O)cc2F)cc1 (single isomer, unassigned) [Compound 83] | 80 to 100 |

Biological target: T2, PPAR Alpha (Homo sapiens, UniProt Q07869)
T2 sequence (Q07869 1-468): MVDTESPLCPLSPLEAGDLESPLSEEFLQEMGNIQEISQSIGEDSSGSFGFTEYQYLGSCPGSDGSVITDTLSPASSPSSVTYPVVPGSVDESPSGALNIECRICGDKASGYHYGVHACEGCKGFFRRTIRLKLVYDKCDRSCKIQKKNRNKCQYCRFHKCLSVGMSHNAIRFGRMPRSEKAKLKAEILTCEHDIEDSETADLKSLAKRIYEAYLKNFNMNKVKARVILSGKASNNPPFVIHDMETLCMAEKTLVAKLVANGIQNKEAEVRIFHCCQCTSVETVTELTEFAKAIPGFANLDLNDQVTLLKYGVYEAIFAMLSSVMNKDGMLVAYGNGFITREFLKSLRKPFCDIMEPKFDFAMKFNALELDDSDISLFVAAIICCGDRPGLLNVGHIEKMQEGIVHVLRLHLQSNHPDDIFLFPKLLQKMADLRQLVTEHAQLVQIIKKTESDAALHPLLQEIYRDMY
Assay: PathHunter NHR protein interaction / nuclear translocation agonist test, PPAR Alpha
Assay type: cell-based
Conditions: not given

| SMILES | PPAR Alpha Maximum Activation Response % |
| --- | --- |
| COC(=O)N1C[C@@H](C(=O)c2ccc(SC)cc2)[C@H](c2cc(C)c(OC(C)(C)C(=O)O)c(C)c2)C1 (single isomer, unassigned) [Compound 4] | III (key: 100% ≥ I ≥ 80%; 80% ≥ II ≥ 50%; III < 50%) |

Same assay, conditions: agonist mode; read-out: PPAR Alpha EC50

| SMILES | EC50 [nM] |
| --- | --- |
| CSc1ccc(C(=O)[C@H]2CN(Cc3ccccc3)C[C@@H]2c2cc(C)c(OC(C)(C)C(=O)O)c(C)c2)cc1 (racemic) [Compound 2] | > 250 |
| CSc1ccc(C(=O)[C@H]2CN(C)C[C@@H]2c2cc(C)c(OC(C)(C)C(=O)O)c(C)c2)cc1 (racemic) [Compound 1] | > 250 |
| CSc1ccc(C(=O)C2CN(C(=O)c3ccccc3)CC2c2cc(C)c(OC(C)(C)C(=O)O)c(C)c2)cc1 (single isomer, unassigned) [Compound 16] | > 250 |
| CCOC(=O)N1CC(C(=O)c2ccc(SC)cc2)C(c2cc(C)c(OC(C)(C)C(=O)O)c(C)c2)C1 (single isomer, unassigned) [Compound 6] | > 250 |
| COC(=O)N1CC(Cc2ccc(SC)cc2)C(c2cc(C)c(OC(C)(C)C(=O)O)c(C)c2)C1 (single isomer, unassigned) [Compound 22] | > 250 |
| CSc1ccc(C(=O)C2CN(C(=O)OCc3ccccc3)CC2c2cc(C)c(OC(C)(C)C(=O)O)c(C)c2)cc1 (single isomer, unassigned) [Compound 8] | > 250 |
| CSc1ccc(C(=O)[C@@H]2CN(C(=O)Oc3ccc(Cl)cc3F)C[C@H]2c2cc(C)c(OC(C)(C)C(=O)O)c(C)c2)cc1 (single isomer, unassigned) [Compound 42] | < 100 |
| CSc1ccc(C(=O)C2CN(C(=O)Oc3ccc(F)cc3)CC2c2cc(C)c(OC(C)(C)C(=O)O)c(C)c2)cc1 (single isomer, unassigned) [Compound 35] | 200 to 250 |
| COC(=O)N1C[C@@H](C(=O)c2ccc(SC)cc2)[C@H](c2cc(C)c(OC(C)(C)C(=O)O)c(C)c2)C1 (single isomer, unassigned) [Compound 4] | > 250 |
| CSc1ccc(C(=O)[C@H]2CN(C(=O)OCCC(C)C)C[C@@H]2CCc2cc(C)c(OC(C)(C)C(=O)O)c(C)c2)cc1 (racemic) [Compound 72] | < 100 |
| CSc1ccc(C(=O)C2CN(C(=O)OC(C)C)CC2c2cc(C)c(OC(C)(C)C(=O)O)c(C)c2)cc1 (single isomer, unassigned) [Compound 7] | > 250 |
| CSc1ccc(C(=O)C2CN(S(C)(=O)=O)CC2c2cc(C)c(OC(C)(C)C(=O)O)c(C)c2)cc1 (single isomer, unassigned) [Compound 18] | 200 to 250 |
| CSc1ccc(C(=O)[C@@H]2CN(C(C)=O)C[C@H]2CCc2cc(C)c(OC(C)(C)C(=O)O)c(C)c2)cc1 (racemic) [Compound 71] | 200 to 250 |
| CSc1ccc(C(=O)C2CN(C(=O)Oc3ccccc3)CC2Cc2ccc(OC(C)(C)C(=O)O)cc2F)cc1 (single isomer, unassigned) [Compound 83] | 100 to 150 |
| CSc1ccc(C(=O)C2CN(C(=O)c3ccccc3)CC2c2cc(C)c(OC(C)(C)C(=O)O)c(C)c2)cc1 (single isomer, unassigned) [Compound 17] | > 250 |
| CSc1ccc(C(=O)[C@H]2CNC[C@@H]2c2cc(C)c(OC(C)(C)C(=O)O)c(C)c2)cc1 (racemic) [Compound 3] | > 250 |
| COC(=O)N1CC(Cc2ccc(SC)cc2)C(c2cc(C)c(OC(C)(C)C(=O)O)c(C)c2)C1 (single isomer, unassigned) [Compound 23] | > 250 |

Same assay, conditions: read-out: PPAR Alpha Maximum Activation Response %

| SMILES | Emax [%] |
| --- | --- |
| CSc1ccc(C(=O)[C@H]2CN(Cc3ccccc3)C[C@@H]2c2cc(C)c(OC(C)(C)C(=O)O)c(C)c2)cc1 (racemic) [Compound 2] | < 50 |
| CSc1ccc(C(=O)[C@H]2CN(C)C[C@@H]2c2cc(C)c(OC(C)(C)C(=O)O)c(C)c2)cc1 (racemic) [Compound 1] | < 50 |
| CSc1ccc(C(=O)C2CN(C(=O)c3ccccc3)CC2c2cc(C)c(OC(C)(C)C(=O)O)c(C)c2)cc1 (single isomer, unassigned) [Compound 16] | 80 to 100 |
| CCOC(=O)N1CC(C(=O)c2ccc(SC)cc2)C(c2cc(C)c(OC(C)(C)C(=O)O)c(C)c2)C1 (single isomer, unassigned) [Compound 6] | 50 to 80 |
| COC(=O)N1CC(Cc2ccc(SC)cc2)C(c2cc(C)c(OC(C)(C)C(=O)O)c(C)c2)C1 (single isomer, unassigned) [Compound 22] | < 50 |
| CSc1ccc(C(=O)C2CN(C(=O)OCc3ccccc3)CC2c2cc(C)c(OC(C)(C)C(=O)O)c(C)c2)cc1 (single isomer, unassigned) [Compound 8] | 50 to 80 |
| CSc1ccc(C(=O)[C@@H]2CN(C(=O)Oc3ccc(Cl)cc3F)C[C@H]2c2cc(C)c(OC(C)(C)C(=O)O)c(C)c2)cc1 (single isomer, unassigned) [Compound 42] | 80 to 100 |
| CSc1ccc(C(=O)C2CN(C(=O)Oc3ccc(F)cc3)CC2c2cc(C)c(OC(C)(C)C(=O)O)c(C)c2)cc1 (single isomer, unassigned) [Compound 35] | 80 to 100 |
| CSc1ccc(C(=O)[C@H]2CN(C(=O)OCCC(C)C)C[C@@H]2CCc2cc(C)c(OC(C)(C)C(=O)O)c(C)c2)cc1 (racemic) [Compound 72] | 80 to 100 |
| CSc1ccc(C(=O)C2CN(C(=O)OC(C)C)CC2c2cc(C)c(OC(C)(C)C(=O)O)c(C)c2)cc1 (single isomer, unassigned) [Compound 7] | 50 to 80 |
| CSc1ccc(C(=O)C2CN(S(C)(=O)=O)CC2c2cc(C)c(OC(C)(C)C(=O)O)c(C)c2)cc1 (single isomer, unassigned) [Compound 18] | 80 to 100 |
| CSc1ccc(C(=O)[C@@H]2CN(C(C)=O)C[C@H]2CCc2cc(C)c(OC(C)(C)C(=O)O)c(C)c2)cc1 (racemic) [Compound 71] | 80 to 100 |
| CSc1ccc(C(=O)C2CN(C(=O)Oc3ccccc3)CC2Cc2ccc(OC(C)(C)C(=O)O)cc2F)cc1 (single isomer, unassigned) [Compound 83] | 80 to 100 |
| CSc1ccc(C(=O)[C@H]2CNC[C@@H]2c2cc(C)c(OC(C)(C)C(=O)O)c(C)c2)cc1 (racemic) [Compound 3] | < 50 |

Same assay, conditions: reference agonist, indicated to be 100% (Note 1); read-out: PPAR Alpha Maximum Activation Response %

| SMILES | Emax [%] |
| --- | --- |
| CC(C)(Sc1ccc(CCN(CCCCC2CCCCC2)C(=O)NC2CCCCC2)cc1)C(=O)O [GW7647, reference compound] | 100 |

— US10526320B2, “Pyrrolidine derivatives as PPAR agonists” (GUANGDONG RAYNOVENT BIOTECH CO., LTD., priority 2016, dated 2020)
